# Results published in patent US20110130380A1, “Heteroaryl Kinase Inhibitors” (priority 2009, published 2011).
# Legend:
# [1] = tested on: neointima formation; details: rats; cited from earlier work
# [2] = target: Cdk9/cyclinT1 (Homo sapiens, UniProt P50750); test: Cdk9/cyclinT1 IMAP Protocol (fluorescence polarization kinase assay); details: ATP 6 uM
# [3] = Cdk9_cyclinT1_IC50, Table V, generated using one of the two Cdk9/cyclinT1 assays (IMAP or Alpha Screen), not stated which
# Sequence of Cdk9/cyclinT1 (P50750 whole entry): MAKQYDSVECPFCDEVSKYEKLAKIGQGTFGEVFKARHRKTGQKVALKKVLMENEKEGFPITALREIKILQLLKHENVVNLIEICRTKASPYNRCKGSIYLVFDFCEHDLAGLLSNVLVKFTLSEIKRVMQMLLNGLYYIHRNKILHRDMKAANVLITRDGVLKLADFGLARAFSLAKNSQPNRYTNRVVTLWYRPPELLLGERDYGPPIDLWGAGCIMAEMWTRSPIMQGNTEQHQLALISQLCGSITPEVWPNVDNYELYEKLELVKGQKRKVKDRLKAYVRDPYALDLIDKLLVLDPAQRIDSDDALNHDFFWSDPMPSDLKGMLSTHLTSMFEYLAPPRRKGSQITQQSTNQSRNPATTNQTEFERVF
# Sequence of Cdk9/cyclinT1 (O60563 whole entry partner): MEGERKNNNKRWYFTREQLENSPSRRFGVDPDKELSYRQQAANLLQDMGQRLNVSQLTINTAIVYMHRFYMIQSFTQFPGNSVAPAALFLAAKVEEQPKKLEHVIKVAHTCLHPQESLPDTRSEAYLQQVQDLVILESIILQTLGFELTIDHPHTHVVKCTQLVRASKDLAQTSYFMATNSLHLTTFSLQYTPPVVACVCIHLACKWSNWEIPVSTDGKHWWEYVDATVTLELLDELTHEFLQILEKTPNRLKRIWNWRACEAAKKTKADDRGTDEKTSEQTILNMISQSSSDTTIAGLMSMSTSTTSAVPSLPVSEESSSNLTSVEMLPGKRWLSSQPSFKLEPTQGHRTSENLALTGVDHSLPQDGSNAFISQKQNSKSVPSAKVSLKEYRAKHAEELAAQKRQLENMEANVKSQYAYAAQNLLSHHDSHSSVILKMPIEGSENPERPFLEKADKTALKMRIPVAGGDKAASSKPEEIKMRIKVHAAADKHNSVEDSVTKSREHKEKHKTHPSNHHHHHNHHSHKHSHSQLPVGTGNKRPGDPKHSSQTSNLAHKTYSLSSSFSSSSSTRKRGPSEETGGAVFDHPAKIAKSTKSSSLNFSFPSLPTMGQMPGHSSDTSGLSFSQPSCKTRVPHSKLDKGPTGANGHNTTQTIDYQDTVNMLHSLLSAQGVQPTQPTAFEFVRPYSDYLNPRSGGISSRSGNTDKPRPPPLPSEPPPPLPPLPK
SMILES,"IC50 [2, 3] [nM]",also measured
COc1ccc(CNc2nc(N(CCO)CCO)nc3c2ncn3C(C)C)cc1 [CVT-313],,inhibition of neointima formation [1]: greater than 80%
"N[C@@H]1CC[C@@H](C(=O)Nc2cc(-c3cccc(NCC4CCOCC4)n3)c(Cl)cn2)C1 [Example 49, (1R,3R)-3-Amino-cyclopentanecarboxylic acid {5′-chloro-6-[(tetrahydro-pyran-4-ylmethyl)-amino]-[2,4′]bipyridinyl-2′-yl}-amide]",< 8,
"O=C(Nc1cc(-c2cc(NCC3CCOCC3)cnc2Cl)c(Cl)cn1)[C@@H]1CCCNC1 [Example 312, (R)-Piperidine-3-carboxylic acid {2,5′-dichloro-5-[(tetrahydro-pyran-4-ylmethyl)-amino]-[3,4′]bipyridinyl-2′-yl}-amide]",,"IC50 ([2]; Cdk9_cyclinT1_IC50, generated using one of the two Cdk9/cyclinT1 assays (IMAP or Alpha Screen), not specified per value): < 8 nM"
"O=C(Nc1cc(-c2nc(NCC3CCOCC3)ccc2Cl)c(Cl)cn1)[C@H]1CNC[C@H]1F [Example 102, (3R,4S)-4-Fluoro-pyrrolidine-3-carboxylic acid {3,5′-dichloro-6-[(tetrahydro-pyran-4-ylmethyl)-amino]-[2,4′]bipyridinyl-2′-yl}-amide]",9,
"O=C(Nc1cc(-c2cccc(NC[C@@H]3CCCO3)n2)c(Cl)cn1)[C@@H]1CCCNC1 [Example 27, (R)-Piperidine-3-carboxylic acid (5′-chloro-6-{[(S)-1-(tetrahydro-furan-2-yl)methyl]-amino}-[2,4′]bipyridinyl-2′-yl)-amide]",21,
